From BindingDB's records for doi:10.1021/jm00391a032 (1987)
pIC50: −log10 of the molar value.

target: Beta-lactamase/penicillinase (Bacillus sp.); test: Inhibitory activity against Beta-lactamase from Bacillus sp. using penicillin G as substrate

In order of rising pIC50:
1. C[C@]1(Cn2nncc2C(=O)O)[C@H](C(=O)O)C2C(=O)CC2S1(=O)=O (some centres not stated)  5.77
2. C[C@]1(Cn2cc(N)nn2)[C@H](C(=O)O)C2C(=O)CC2S1(=O)=O (some centres not stated)  6.15
3. C[C@]1(Cn2cc([Si](C)(C)C)nn2)[C@H](C(=O)O)C2C(=O)CC2S1(=O)=O (some centres not stated)  6.29
4. CCOC(=O)c1cnnn1C[C@@]1(C)[C@H](C(=O)O)C2C(=O)CC2S1(=O)=O (some centres not stated)  6.47
5. COC(=O)c1nnn(C[C@@]2(C)[C@H](C(=O)O)C3C(=O)CC3S2(=O)=O)c1C(=O)OC (some centres not stated)  6.52
6. COC(=O)c1cnnn1C[C@@]1(C)[C@H](C(=O)O)C2C(=O)CC2S1(=O)=O (some centres not stated)  6.52
7. CCOC(=O)c1cn(C[C@@]2(C)[C@H](C(=O)O)C3C(=O)CC3S2(=O)=O)nn1 (some centres not stated)  7.27
